Series [1] has as its system HL-60. Briefly: Cytoprotection against human HL60 cells assessed as inhibition of H2O2-induced cell death pretreated for 1 hr followed by H2O2 stimulation measured after 3 hrs by p-iodonitrotetrazolium violet dye based LDH assay. Type of series: functional.
The test system of series [2] is NIH3T3. Briefly: Inhibition of erastin-induced ferroptosis in mouse NIH/3T3 cells after 24 hrs by WST-8 assay. Format: functional, cell-based. Conditions: NIH3T3, 24 h. On the technique in general: Tetrazolium assays rely on reduction of a dye to a coloured formazan, in cell work by metabolically active cells.
In series [3] the test system is NIH3T3. Briefly: Inhibition of TBHP-induced ferroptosis in mouse NIH/3T3 cells after 12 hrs by WST-8 assay. Format: functional, cell-based. Conditions: NIH3T3, 12 h.
For series [4], the system named is Neutrophil. Nature of the series: Inhibition of PMA-induced superoxide production in C57BL6 mouse neutrophils at 100 uM preincubated for 30 mins followed by PMA stimulation and measured after 30 mins by luminol-lucignenin based luminescence assay. Type of series: functional, cell-based.
Series [5] has as its system Neutrophil. Nature of the series: Inhibition of PMA-induced NETosis in human neutrophils assessed as effect on lipid peroxidation at 100 uM preincubated for 30 mins followed by PMA stimulation measured after 30 mins by C11-Bodipy fluorescent dye based flow cytometry. Type of series: functional, cell-based. (Flow cytometry measures light scatter and fluorescence of single cells or particles in a stream.)

For series [6], the system named is Neutrophil. Nature of the series: Inhibition of PMA-induced NETosis in human neutrophils at 100 uM preincubated for 30 mins followed by PMA stimulation and measured after 3 hrs by Hoechst […] staining based fluorescence microscopic analysis. Format: functional, cell-based.
For series [7], the system named is THP-1. Briefly: Inhibition of Pseudomonas aeruginosa-induced pyroptosis in human THP1 cells at 10 uM preincubated for 1 hr followed by bacterial infection and measured after 2 hrs by INT dye based LDH assay. Format: functional, cell-based.
The test system of series [8] is THP-1. Nature of the series: Inhibition of Staphylococcus aureus-induced pyroptosis in human THP1 cells at 10 uM preincubated for 1 hr followed by bacterial infection and measured after 2 hrs by INT dye based LDH assay. Type of series: functional, cell-based.
The test system of series [9] is Neutrophil. Briefly: Inhibition of PMA-induced NETosis in human neutrophils at […] preincubated for 30 mins followed by PMA stimulation and measured after 3.5 hrs by Hoechst […] staining based fluorescence microscopic analysis. Type of series: functional, cell-based.
A short description of series [10]: Aqueous solubility of compound in citrate-phosphate buffer at pH 7.0 after 30 mins by HPLC analysis. Format: physicochemical.
Series [11] relates to Neutrophil. Nature of the series: Inhibition of PMA-induced NETosis in human neutrophils assessed as reduction in lipid peroxidation at 2.5 uM preincubated for 30 mins followed by PMA stimulation measured after 30 mins by C11-Bodipy fluorescent dye based flow cytometry. Type of series: functional, cell-based.
Series [12] has as its system Neutrophil. Briefly: Inhibition of PMA-induced NETosis in human neutrophils at 2.5 uM preincubated for 30 mins followed by PMA stimulation and measured after 3 hrs by Hoechst […] staining based fluorescence microscopic analysis. Type of series: functional, cell-based.
For series [13], the system named is Neutrophil. Nature of the series: Inhibition of PMA-induced NETosis in human neutrophils assessed as inhibition of ROS production at 25 uM pretreated for 25 mins followed by PMA stimulation and measured after 20 mins by DCFH-DA based flow cytometry. Type of series: functional, cell-based.
In series [14] the test system is Neutrophil. Briefly: Inhibition of PMA-induced superoxide production in C57BL6 mouse neutrophils at 2.5 uM preincubated for 30 mins followed by PMA stimulation and measured after 30 mins by luminol-lucignenin based luminescence assay. Format: functional, cell-based.
Series [15] relates to Neutrophil. Nature of the series: Inhibition of PMA-induced NETosis in human neutrophils at 25 uM preincubated for 30 mins followed by PMA stimulation and measured after 3 hrs by Hoechst […] staining based fluorescence microscopic analysis. Format: functional, cell-based.

The values that follow come from ChEMBL document CHEMBL4304811, “Development of a Water-Soluble Indolylmaleimide Derivative IM-93 Showing Dual Inhibition of Ferroptosis and NETosis” (ACS Med Chem Lett, 2019).

Molecules are shown by their SMILES. Calls of active or inactive are those of the source. The rule behind the calls is not given here.

The term IC50 denotes the concentration that inhibits the measured activity by half. As for `CN1C(=O)C(NCCc2ccccc2)=C(c2cn(C)c3ccccc23)C1=O`, the IC50 in [1] worked out at 650 nM. The same measure, in the same setting: with `COc1cccc(CNC2=C(c3cn(C)c4ccccc34)C(=O)N(C)C2=O)c1` the figure was 420 nM; with `CN1C(=O)C(c2cn(C)c3ccccc23)=C(N2CCCC2)C1=O`, 4700 nM; with `CN1C(=O)C(NC(c2ccccc2)c2ccccc2)=C(c2cn(C)c3ccccc23)C1=O`, 1200 nM. Same read-out and setting: the same measure for `CN1C(=O)C(NCc2ccncc2)=C(c2cn(C)c3ccccc23)C1=O`: 1200 nM; for `CN1C(=O)C(NCc2cccc(Cl)c2)=C(c2cn(C)c3ccccc23)C1=O`: 280 nM; for `CCCNC1=C(c2cn(C)c3ccccc23)C(=O)N(Cc2ccccc2)C1=O`: 450 nM.

`CCCCCN1C(=O)C(NCCC)=C(c2cn(C)c3ccccc23)C1=O`: the IC50 in [1] worked out at 320 nM. Still for that read-out and setting: the same measure for `C[C@H](NC1=C(c2cn(C)c3ccccc23)C(=O)N(C)C1=O)c1ccccc1`: 510 nM; for `CN1C(=O)C(N)=C(c2cn(C)c3ccccc23)C1=O`: 4500 nM. The same measure, in the same setting: with `CCCNC1=C(c2cn(C)c3ccccc23)C(=O)N(CC)C1=O` the figure was 750 nM; with `COc1ccccc1CNC1=C(c2cn(C)c3ccccc23)C(=O)N(C)C1=O`, 480 nM. Regarding `CCCNC1=C(c2cn(C)c3ccccc23)C(=O)N(C2CCCC2)C1=O`, the IC50 in [1] is 280 nM. On the same count and under the same terms, the same measure for `CCCCCCCCCCCCCN1C(=O)C(NCCC)=C(c2cn(C)c3ccccc23)C1=O`: 400 nM; for `CN1C(=O)C(NC2CCCC2)=C(c2cn(C)c3ccccc23)C1=O`: 300 nM. In the case of `CCCCN1C(=O)C(NCCC)=C(c2cn(C)c3ccccc23)C1=O`, the IC50 in series [1] came out at 350 nM. As for `CN1C(=O)C(NCc2ccc(Cl)cc2)=C(c2cn(C)c3ccccc23)C1=O`, the 50% inhibitory concentration (IC50) in [1] was 310 nM. Consider `CN1C(=O)C(NCC2CCCCC2)=C(c2cn(C)c3ccccc23)C1=O`, for which the IC50 in series [1] worked out at 390 nM.

Take `CC(=O)N(O)CCCCCNC(=O)CCC(=O)N(O)CCCCCNC(=O)CCC(=O)N(O)CCCCCN` [DEFEROXAMINE]: the IC50 is 4900 nM in [2] and 9 µM in [3]. Further, the inhibition entry in series [4] and in series [6] was “inactive” throughout. Further, in [5], the result was inactive.

With `CN1C(=O)C(NCc2ccccn2)=C(c2cn(C)c3ccccc23)C1=O`, the IC50 in series [1] came to 1300 nM. As to `CCCNC(=O)[C@H]1O[C@@H]1C(=O)N[C@H](C(=O)N1CCC[C@H]1C(=O)OC)[C@@H](C)CC`, the inhibition result in series [7] and in series [8] was “Active” in each case.

`CCCNC1=C(c2cn(C)c3ccccc23)C(=O)N(CCC)C1=O`: in [1], the IC50 was 610 nM.

For the compound `C[C@@H](NC1=C(c2cn(C)c3ccccc23)C(=O)N(C)C1=O)c1ccccc1`, the half-inhibitory concentration (IC50) in series [1] is 390 nM. As to `CN1C(=O)C(NC2CC2)=C(c2cn(C)c3ccccc23)C1=O`, in series [1], the concentration for half-maximal inhibition (IC50) came out at 3800 nM. `CN1C(=O)C(NCc2ccccc2Cl)=C(c2cn(C)c3ccccc23)C1=O`: the IC50 in series [1] came out at 1700 nM. For the compound `CC(=O)N[C@@H](CS)C(=O)O`, in series [9], the inhibition result was “inactive”. For `CN1C(=O)C(NC(C)(C)C)=C(c2cn(C)c3ccccc23)C1=O`, the IC50 in series [1] was 880 nM. The same measure, in the same setting: the same measure for `CN(C)CCCNC1=C(c2cn(C)c3ccccc23)C(=O)N(C)C1=O`: 610 nM.

Usually solubility stands for how much of the substance goes into solution per volume. Low values mean little dissolved substance, high ones much dissolved substance. For `CN1C(=O)C(NCCN)=C(c2cn(C)c3ccccc23)C1=O.Cl`, the solubility at 0.5 h in series [10] came to 71 mM. This lies in the millimolar range. Regarding `CN(C)CCNC1=C(c2cn(C)c3ccccc23)C(=O)N(C)C1=O`, in series [1], the IC50 came out at 760 nM. On the same count and under the same terms, with `CCCNC1=C(c2cn(C)c3ccccc23)C(=O)N(C(C)C)C1=O` the figure was 34 nM; with `CN1C(=O)C(NCc2cccnc2)=C(c2cn(C)c3ccccc23)C1=O`, 1300 nM. Still for that read-out and setting: the same measure for `CCCNC1=C(c2cn(C)c3ccccc23)C(=O)N(C(CC)CC)C1=O`: 480 nM. Consider `CCCCCNC1=C(c2cn(C)c3ccccc23)C(=O)N(C)C1=O`, for which the solubility at 0.5 h in series [10] is less than 0.001 mM. As for `CN1C(=O)C(NC2CCCCC2)=C(c2cn(C)c3ccccc23)C1=O`, the 50% inhibitory concentration (IC50) in series [1] is 1000 nM. Turning to `CCOC(=O)c1ccc(NC2CCCCC2)c(N)c1`, in series [11], the inhibition result was “Active”. Moreover, the inhibition entry in series [12], in series [13], in series [14] and in [15] was “inactive” throughout. Besides, the values for the IC50 in [2] and in series [3] were 270 nM and 0.22 µM, respectively.

Turning to `CN1C(=O)C(NCc2ccco2)=C(c2cn(C)c3ccccc23)C1=O`, the IC50 in series [1] was found to be 710 nM. On the same count and under the same terms, the same measure for `CN(C)C1=C(c2cn(C)c3ccccc23)C(=O)N(C)C1=O`: 4300 nM; for `CN1C(=O)C(NCc2ccccc2)=C(c2cn(C)c3ccccc23)C1=O`: 330 nM; for `COc1ccc(CNC2=C(c3cn(C)c4ccccc34)C(=O)N(C)C2=O)cc1`: 860 nM.

Turning to `CCCNC1=C(c2cn(C)c3ccccc23)C(=O)N(C(c2ccccc2)(c2ccccc2)c2ccccc2)C1=O`, in series [1], the IC50 was 800 nM. For the compound `CC(C)NC1=C(c2cn(C)c3ccccc23)C(=O)N(C)C1=O`, the IC50 in series [1] was determined as 480 nM.
